Measurements taken from patent publication US10583112B2, “Benzo[b]furans as bromodomain inhibitors” (GlaxoSmithKline Intellectual Property (No. 2) Limited, priority 2016, dated 2020).

Legend:
[1] = biological target: T1, BRD4 BD2 (Homo sapiens, UniProt O60885, Y97A); test: BRD4 BD2 TR-FRET competition assay; assay type: binding
T1 construct: BRD4 (1-477) (Y97A) and (Y390A); made in house; host or cells: E. coli (pET15b vector)
Procedure: Bromodomain binding was assessed utilising a time resolved fluorescent resonance energy transfer (TR-FRET) competition assay. […] Europium chelate, conjugated to an anti-6*His antibody, was utilised as the donor fluorophore in the TR-FRET pair.
In order to generate a TR-FRET signal, donor fluorophore is excited by a laser at λ337 nm, which subsequently leads to emission at λ618 nm.
In order to monitor differential binding to either BD1 or BD2, single residue mutations of key tyrosines to alanine were made in the acetyl lysine binding pockets. To validate this approach, a double residue mutant tandem domain protein was produced for each of the BET family members.
Final purification was completed by Superdex 200 prep grade size exclusion column. Purified protein was stored at −80° C. in 20 mM HEPES pH 7.5 and 100 mM NaCl.
All assay components were dissolved in an assay buffer composing of 50 mM HEPES pH7.4, 50 mM NaCl, 5% Glycerol, 1 mM DTT and 1 mM CHAPS. […] An equal volume of 3 nM of anti-6*His Europium chelate was added to all wells, followed by a further 30 minute incubation at room temperature. TR-FRET was detected using a Perkin Elmer Multimode plate reader, by exciting the donor fluorophore at λ337 nm and subsequently, after a delay of 50 μsecs, measuring emission of the donor and acceptor fluorophores at λ615 nm and λ665 nm, respectively.
cA four parameter curve fit of the following form was then applied: y=a+((b−a)/(1+(10^x/10^c)^d) • Where ‘a’ is the minimum, ‘b’ is the Hill slope, ‘c’ is the pIC50 and ‘d’ is the maximum.

[2] = biological target: T2, BRD4 BD1 (Homo sapiens, UniProt O60885, Y390A); test: BRD4 BD1 TR-FRET competition assay; assay type: binding; details: mean, n given; read-out: pIC50 in the BRD4 BD1 TR-FRET assay (converted)
T2 construct: BRD4 (1-477) (Y97A) and (Y390A); made in house; host or cells: E. coli (pET15b vector)
Procedure: Bromodomain binding was assessed utilising a time resolved fluorescent resonance energy transfer (TR-FRET) competition assay. To enable this approach a known, high affinity, pan-BET interacting small molecule was labelled with Alexa Fluor® 647, which is a far-red-fluorescent dye (Reference Compound X). Reference Compound X acts as a reporter of bromodomain binding and is the acceptor fluorophore component of the TR-FRET pair. Europium chelate, conjugated to an anti-6*His antibody, was utilised as the donor fluorophore in the TR-FRET pair. […]
The competition of the compounds of formula (I) with Reference Compound X for binding to the BET family (BRD2, BRD3, BRD4 and BRDT) was assessed using protein truncates spanning both bromodomain 1 (BD1) and bromodomain 2 (BD2). […] Utilising a Fluorescence Polarisation approach, binding affinities for each of the single and double mutants for Reference Compound X were determined. […]
All assay components were dissolved in an assay buffer composing of 50 mM HEPES pH7.4, 50 mM NaCl, 5% Glycerol, 1 mM DTT and 1 mM CHAPS. […] TR-FRET was detected using a Perkin Elmer Multimode plate reader, by exciting the donor fluorophore at λ337 nm and subsequently, after a delay of 50 μsecs, measuring emission of the donor and acceptor fluorophores at λ615 nm and λ665 nm, respectively. […]

[3] = system: double residue mutant tandem domain protein of each of the BET family members; test: Fluorescence Polarisation binding affinity, double mutants; set-up: species or system Human
Procedure: (§1) The competition of the compounds of formula (I) with Reference Compound X for binding to the BET family (BRD2, BRD3, BRD4 and BRDT) was assessed using protein truncates spanning both bromodomain 1 (BD1) and bromodomain 2 (BD2). In order to monitor differential binding to either BD1 or BD2, single residue mutations of key tyrosines to alanine were made in the acetyl lysine binding pockets. To validate this approach, a double residue mutant tandem domain protein was produced for each of the BET family members. Utilising a Fluorescence Polarisation approach, binding affinities for each of the single and double mutants for Reference Compound X were determined. […] The affinities of the single mutated bromdomain tandem proteins for Reference Compound X were equi-potent with the corresponding non-mutated BET protein. […] In the TR-FRET competition assay, Reference Compound X is used at a concentration that is equivalent to the Kd for the non-mutated bromodomain, which ensures that no binding at the mutated bromodomain is detected. […]

[4] = system: single mutated bromodomain tandem proteins (BET family); test: Fluorescence Polarisation binding affinity, single mutants; set-up: species or system Human
Procedure: as §1

Selectivity for BRD4 BD2 over BRD4 BD1 (BRD4 BD2 pIC50 - BRD4 BD1 pIC50) ([1]; in at least one of the TR-FRET assays)	fold selective for BRD4 BD2 over BRD4 BD1 ([1]; inferred from the log unit selectivity)	IC50 ([1]; mean where stated, n given, read-out: pIC50 in the BRD4 BD2 TR-FRET assay (converted))	IC50 [2]	Compound	reduction in Kd (affinity) versus non mutated, wild type tandem BET proteins [3]	affinity versus corresponding non-mutated BET protein [4]
3.2 log unit	at least 1000 fold	0.0158 µM	25.1 µM	CNC(=O)c1cc(C(=O)NCCCC2CNCCO2)cc2c1O[C@H](C)[C@H]2c1ccccc1 (stereo partly drawn) [Example 54, (2R,3S)—N^7,2-Dimethyl-N^5-(3-(morpholin-2-yl)propyl)-3-phenyl-2,3-dihydrobenzofuran-5,7-dicarboxamide]	–	–
–	–	–	–	COc1ccc2c(c1)C(c1ccc(Cl)cc1)=N[C@@H](CC(=O)NCCCCCNC(=O)CCCCCC1(C)/C(=C/C=C/C=C/C3=[N+](CCCCS(=O)(=O)O)c4ccc(S(=O)(=O)O)cc4C3(C)C)N(CCCCS(=O)(=O)[O-])c3ccc(S(=O)(=O)O)cc31)c1nnc(C)n1-2 (stereo partly drawn) [Reference Compound X]	> 1000 fold	equi-potent
